Like-named read-outs stand apart in the source and are kept apart here.
How the values were obtained:
[1] = system: Native 1321N1 cells; experiment: calcium mobilization assay, unspecific effects on native 1321N1 cells; assay type: cell-based, human; conditions: normalised to response of 100 μM carbachol
From the text: (§1) In order to detect the released calcium, cells are loaded with a cell membrane permeable dye, which is converted within the cell into its active form by the cleavage of ester bonds. The active form of the dye binds the released calcium. The fluorescence properties of the dye change after calcium binds to the dye. These changes can be detected automatically and represent the ligand-dependent receptor activation. Cells from two confluently grown (80 to 90%) 175 cm^2 cell culture flasks were needed for a calcium assay using the NOVOstar microplate reader (approximately 150,000 cells per well). Cells were harvested after removing the medium, washed once with PBS buffer and detached using a trypsin/EDTA solution. After incubation for 45 min at 37° C. and 5% CO2, the cells were pelleted by centrifugation (5 min, 200 g). […] The cells were washed twice with 1 ml of KHB buffer (three centrifugation steps, each for 15 sec at 2700 rpm) before being seeded in a 96-well microplate in a total volume of 180 μl. A 10-fold concentrated agonist solution (35 μl) was added to another 96-well microplate with a V-profile. Both plates were placed into the NOVOstar microplate reader and incubated there for 20 min. After incubation, the required gain was determined by the microplate so that the fluorescence background of the cells was between 38,000 and 42,000 fluorescence units. This background is an optimal range for starting the measurement, because it is in the middle of the reader's detection range. Normally, the background in each well of a microplate should be the same. The background was determined by performing a so-called validation. A validation is performed to detect irregularities in cell densities between different wells, fluorescence or absorption properties as well as unspecific antagonist effects. […] Afterwards, 20 μl of agonist were injected from the source plate to the measurement plate by the injector unit of the NOVOstar, and the increase in fluorescence was determined as a function of the calcium efflux resulting from receptor stimulation.

[2] = system: CHO-K1 cells; experiment: calcium mobilization assay, unspecific effects on native CHO-K1 cells; assay type: cell-based, Chinese hamster; conditions: normalised to response of 100 μM ATP
From the text: as §1

[3] = biological target: T1, human GPR17 (hGPR17) (Homo sapiens, UniProt Q13304); experiment: calcium mobilization assay in CHO-GPR17 cells; assay type: cell-based; design: expressed in transfected cells; conditions: for % of response of compound (± SEM) CHO-GPR17 cells: normalised to response of 0.3 μM RA-II-150; for pEC50 (± SEM) CHO-GPR17: calcium mobilization, CHO-GPR17 cells
T1 sequence (Q13304 29-367): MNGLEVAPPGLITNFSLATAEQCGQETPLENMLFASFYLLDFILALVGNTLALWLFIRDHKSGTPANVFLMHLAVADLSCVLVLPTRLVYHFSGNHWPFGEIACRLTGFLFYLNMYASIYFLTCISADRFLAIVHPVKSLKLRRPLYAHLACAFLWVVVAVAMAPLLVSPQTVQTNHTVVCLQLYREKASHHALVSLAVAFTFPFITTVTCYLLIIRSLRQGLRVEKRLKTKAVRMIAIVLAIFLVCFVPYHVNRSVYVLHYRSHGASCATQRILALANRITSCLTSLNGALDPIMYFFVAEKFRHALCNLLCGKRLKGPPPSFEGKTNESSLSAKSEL
From the text: In order to investigate potential differences in receptor signalling as a function of the cellular background, GPR17 was additionally expressed and analysed in a further cell system. Therefore, a recombinant Chinese hamster ovary (CHO) cell line stably expressing GPR17 was generated using the Flp-In™ T-Rex™ expression system. Here, expression of GPR17 was induced after adding doxycycline.
as §1

[4] = biological target: T1, human GPR17 (hGPR17); experiment: calcium mobilization assay in 1321N1-GPR17 cells; assay type: cell-based; design: expressed in transfected cells; host or cells: 1321N1 human astrocytoma cells, retroviral transfection with pLXSN-GPR17, G418 selection
Description: The sequence for the human GPR17 (short isoform) was subcloned into the vector pLXSN (Clontech Laboratories, CA 94043, USA), which can be used for retroviral transfection of the human astrocytoma cell line 1321N1. […] For the retroviral transfection of 1321N1 astrocytoma cells the packaging cell line GP+envAM12 was cultivated in HXM medium (50 ml of foetal calf serum (FCS), 5 ml of penicillin G/streptomycin solution (final concentration 100 U/ml penicillin, 100 μg/ml streptomycin), 1% ultra glutamine, 0.75 ml of hypoxanthine (10 mg/ml), 12.5 ml of xanthine (10 mg/ml), 1.25 ml of mycophenolic acid (10 mg/ml) and 2 ml of hygromycin B (50 mg/ml) were added to 500 ml DMEM). One day before transfection 1.5×10^6 cells were seeded and incubated overnight at 37° C., 5% CO2 and 95% humidity in a 25 cm^2 cell culture flask containing medium without antibiotics. For at least two hours before transfection the medium was exchanged for 6.25 ml DMEM medium without any additive. Two solutions were prepared for the transfection. The first solution consisted of 25 μl of Lipofectamine™ 2000 (final concentration 2%) and 600 μl of DMEM medium without any additives while the second solution was composed of 6.25 μg of pLXSN-GPR17 and 3.75 μg of pLXSN-VSV-G vector DNA. The second solution was filled up with DMEM medium without any additives. Solution one was incubated for 5 min at room temperature before both solutions were combined and incubated for 20 min, also at room temperature. Afterwards the sample was added to the packaging cell line and incubated for 12-15 h. The medium was then replaced with 3 ml of fresh medium containing 30 μl of a 500 mM sodium butyrate solution. The virus production was stimulated by sodium butyrate and took place by incubation for 48 h at 32° C. and 95% humidity. One day before infection 500,000 of 1321N1 astrocytoma cells were seeded in a 25 cm^2 cell culture flask. After 48 h of virus production, the retroviruses were harvested and sterilised by filtration through a filter with a pore size of […]. The host cell medium was replaced with the sterilized virus supernatant containing 6 μl of polybrene solution (4 mg/ml) and the infection of the host cells took place for further 48 h of incubation at 37° C., 95% humidity and 5% CO2. After incubation, the transfected cells were transferred to a 175 cm^2 cell culture flask and selected by adding medium containing G418. The efficiency of infection and stable transfection using this method was up to 95%.
PLC activation and IP3 accumulation result in a release of calcium from intracellular calcium stores, for example the endoplasmic reticulum. In order to detect the released calcium, cells are loaded with a cell membrane permeable dye, which is converted within the cell into its active form by the cleavage of ester bonds. The active form of the dye binds the released calcium. The fluorescence properties of the dye change after calcium binds to the dye. These changes can be detected automatically and represent the ligand-dependent receptor activation. Cells from two confluently grown (80 to 90%) 175 cm^2 cell culture flasks were needed for a calcium assay using the NOVOstar microplate reader (approximately 150,000 cells per well). Cells were harvested after removing the medium, washed once with PBS buffer and detached using a trypsin/EDTA solution. After incubation for 45 min at 37° C. and 5% CO2, the cells were pelleted by centrifugation (5 min, 200 g). Cells were resuspended in 994 μl of Krebs HEPES buffer (KHB; 118.6 mM NaCl, 4.7 mM KCl, 1.2 mM KH2PO4, 4.2 mM NaHCO3, 11.7 mM D-glucose, 10 mM HEPES (free acid), 1.3 mM MgSO4 and 1.2 mM CaCl2, pH 7.4) and loaded in the absence of light with fluorescent, namely Oregon Green 488 BAPTA-1/AM dye, by incubating them for one hour at 28° C. and 700 rpm in an Eppendorf Thermomixer in the presence of Pluronic F-127. Pluronic F-127 was supplemented so that the cells could better absorb the dye. […]

[5] = solubility in solvents; assay type: physicochemical
[6] = 30 μM compound, normalised to response of 30 μM RA-II-150
[7] = calcium mobilization, 1321N1-GPR17 cells

SMILES | % response of 30 μM compound (± SEM) Native 1321N1 cells [1] | % of response of 30 μM compound (± SEM) 1321N1-GPR17 [4, 6] | pEC50 (± SEM) CHO-GPR17 [3] | pEC50 (± SEM) 1321N1-GPR17 [4, 7] | further results
O=C(O)CCc1c(C(=O)O)n(CCC(=O)O)c2cc(Cl)cc(Cl)c12 | 1 (1)/1 (1) (1 μM compound) % | 80 (6) % | – | – | % response of compound (± SEM) CHO-K1 cells ([2]; 1 μM compound): 1 (1)/1 (1) (1 μM compound) %; % of response of compound (± SEM) CHO-GPR17 cells ([3]; 1 μM compound): 85 (5) %
O=C(O)CCc1c(C(=O)O)[nH]c2cc(Br)cc(Br)c12 [3-(2-Carboxyethyl)-4,6-dibromo-1H-indole-2-carboxylic acid] | 0 (1) % | – | 7.87 (0.16) | 6.71 (0.01) | % response of compound (± SEM) CHO-K1 cells ([2]; 0.3 μM compound): 0 (0) %; solubility in methanol, ethanol and ethyl acetate ([5]; methanol, ethanol, ethyl acetate): well soluble; solubility in petrol ether, water, hexane ([5]; petrol ether, water, hexane): slightly soluble; % of response of compound (± SEM) CHO-GPR17 cells ([3]; 0.3 μM compound): 89 (2) %; % of response of compound (± SEM) 1321N1-GPR17 ([4]; 10 μM compound, normalised to response of 30 μM RA-II-150): 106 (1) %
O=C(O)CCc1c(C(=O)O)[nH]c2cc(F)cc(F)c12 [3-(2-Carboxyethyl)-4,6-difluoro-1H-indole-2-carboxylic acid] | 2 (1) % | 77 (2) % | 6.79 (0.10) | 5.13 (0.13) | % response of compound (± SEM) CHO-K1 cells ([2]; 3 μM compound): 1 (2) %; % of response of compound (± SEM) CHO-GPR17 cells ([3]; 3 μM compound): 97 (5) %
O=C(O)CCc1c(C(=O)O)[nH]c2cc(I)cc(I)c12 [3-(2-Carboxyethyl)-4,6-diiodo-1H-indole-2-carboxylic acid] | – | – | – | 5.32 | –
Cc1cc(C)c2c(CCC(=O)O)c(C(=O)O)[nH]c2c1 [3-(2-Carboxyethyl)-4,6-dimethyl-1H-indole-2-carboxylic acid] | 1 (1)/1 (1) (1 μM compound) % | 76 (6) % | 6.47 (0.05) | 4.86 (0.10) | % response of compound (± SEM) CHO-K1 cells ([2]; 1 μM compound): 1 (1)/1 (1) (1 μM compound) %; % of response of compound (± SEM) CHO-GPR17 cells ([3]; 1 μM compound): 68 (2) %
O=C(O)CCc1c(C(=O)O)[nH]c2cc(-c3ccccc3)cc(-c3ccccc3)c12 [3-(2-Carboxyethyl)-4,6-diphenyl-1H-indole-2-carboxylic acid] | – | – | – | 5.52 | –
O=C(O)CCc1c(C(=O)O)[nH]c2cc(Br)ccc12 [3-(2-Carboxyethyl)-6-bromo-1H-indole-2-carboxylic acid] | – | – | – | 5.50 | –
O=C(O)CCc1c(C(=O)O)[nH]c2cc(Cl)ccc12 [3-(2-Carboxyethyl)-6-chloro-1H-indole-2-carboxylic acid] | 4 (3) % | 84 (6) % | 7.69 (0.10) | 5.43 (0.14) | % response of compound (± SEM) CHO-K1 cells ([2]; 0.3 μM compound): 1 (2) %; % of response of compound (± SEM) CHO-GPR17 cells ([3]; 1 μM compound): 94 (7) %
O=C(O)CCc1c(C(=O)O)[nH]c2cc(I)ccc12 [3-(2-Carboxyethyl)-6-iodo-1H-indole-2-carboxylic acid] | – | – | – | 6.15 | –
O=C(O)CCc1c(C(=O)O)[nH]c2cc(-c3ccccc3)ccc12 [3-(2-Carboxyethyl)-6-phenyl-1H-indole-2-carboxylic acid] | – | – | – | 6.14 | –
O=C(O)CCc1c(C(=O)O)[nH]c2cc(Cl)cc(Cl)c12 [RA-II-150, 3-(2-carboxyethyl)-4,6-dichloro-1H-indole-2-carboxylic acid] | 0 (3) % | – | 6.09 (0.06)/ 8.20 (0.08) | – | % response of compound (± SEM) CHO-K1 cells ([2]; 0.1 μM compound): 0 (1) %; % of response of compound (± SEM) CHO-GPR17 cells ([3]; 0.3 μM compound): 100 (0)/100 (0) (0.3 μM compound) %; % of response of 30 μM compound (± SEM) 1321N1-GPR17 [4]: 100 (0)/100 (0) (0.3 μM compound) %; pEC50 (± SEM) 1321N1-GPR17 [4]: 6.09 (0.06)/ 8.20 (0.08)

Source: US8623593B1, “GPR 17 agonists and screening assay” (Rheinische Friedrich-Wilhelms-Universität Bonn, priority 2011, dated 2014)
